Source: patent US20110008465A1, “SESQUITERPENE FORMULATIONS, KITS AND METHODS OF USE THEREOF” (priority 2007, published 2011)

Key:
Assay in all cases: Chou and Talalay combination assay with beta-caryophyllene
Conditions in all cases: anticancer drug in combination with beta-caryophyllene; Chou and Talalay CI; 48 h
[1] = system: GL-261 (murine glioblastoma); format: cell-based
Description: (§1) Each solution was prepared fresh and use within 1 hour after preparation.
(§2) Cells were then harvested using trypsine-EDTA. Cells were counted using a hemocytometer and resuspended in DMEM+10% FBS medium.
(§3) Proliferation assay: Increasing concentrations of the anticancer agents and/or beta-caryophyllene were added to 96-well plate (100 μL per well). The final concentration of solvent in the culture medium was maintained below 0.5% (volume/volume) to avoid solvent toxicity.
(§4) The cells were incubated for 48 h at 37° C. and 5% CO2. Cytotoxicity was assessed using the resazurin reduction test (O'Brien et al., 2000). Fluorescence was measured on an automated 96-well Fluoroskan Ascent FI™ plate reader (Labsystems) using excitation and emission wavelengths of 530 nm and 590 nm, respectively. Resazurin was then removed.
(§5) Microplates were frozen at −20° C. overnight. Plates were thawed, a volume of 100 μl of 0.01% SDS in water was added to the wells, the plates were shaken at room temperature for 3 hours and then frozen once more at −20° C. overnight. […] Plates were shaken in the dark (at room temperature) for at least 2 hours, and fluorescence was measured on an automated 96-well Fluoroskan Ascent FI™ plate reader (Labsystems) using excitation and emission wavelengths of 360 nm and 460 nm, respectively.
(§6) Results were analyzed using the Chou and Talalay method (9) and may be interpreted as follow: Cl>1 represents an antagonist effect of beta-caryophyllene with the corresponding anticancer agent; Cl=1 represents an additive effect of beta-caryophyllene with the corresponding anticancer agent; Cl<1 represents a potentiating effect of beta-caryophyllene with the corresponding anticancer agent.

MEL-2 (human melanoma) = format: cell-based
Description: as §1, §2, §3, §4, §5, §6

B16 (murine melanoma) = format: cell-based
Description: as §1, §2, §3, §4, §5, §6

[2] = system: U-251 (human glioblastoma); format: cell-based
Description: as §1, §2, §3, §4, §5, §6

[3] = system: MDA-MB-231 (breast cancer); format: cell-based, human
Description: as §1, §2, §3, §4, §5, §6

A-549 (lung cancer) = format: cell-based, human
Description: as §1, §2, §3, §4, §5, §6

MCF-7 (breast cancer) = format: cell-based, human
Description: as §1, §2, §3, §4, §5, §6

DLD-1 (colon cancer) = format: cell-based, human
Description: as §1, §2, §3, §4, §5, §6

PA-1 (ovary cancer) = format: cell-based, human
Description: as §1, §2, §3, §4, §5, §6

PC-3 (prostate cancer) = format: cell-based, human
Description: as §1, §2, §3, §4, §5

SMILES | Potentiating activity GL-261 [1] | Potentiating activity MEL-2 (MEL-2 (human melanoma)) | Potentiating activity B16 (B16 (murine melanoma)) | Potentiating activity U-251 [2] | Potentiating activity MDA [3] | Potentiating activity A-549 (A-549 (lung cancer)) | Potentiating activity MCF-7 (MCF-7 (breast cancer)) | Potentiating activity DLD-1 (DLD-1 (colon cancer)) | Potentiating activity PA-1 (PA-1 (ovary cancer)) | Potentiating activity PC-3 (PC-3 (prostate cancer))
O=c1[nH]cc(F)c(=O)[nH]1 [5-fluorouracil, 5-Fluorouracil] | (3) (Moderate: 0.5 < CI < 0.8 to IC50) | (1) (Very High: potentiating or additive activity to IC20 and CI < 0.6 to IC50) | (1) (Very High: potentiating or additive activity to IC20 and CI < 0.6 to IC50) | (1) (Very High: potentiating or additive activity to IC20 and CI < 0.6 to IC50) | (3) (Moderate: 0.5 < CI < 0.8 at IC50) | (6) (Antagonist effect: CI > 1) | (1) (Very High: CI equal or below 1 at IC20 and Cl below 0.6 to IC50) | (3) (Moderate: 0.5 < CI < 0.8 at IC50) | (2) (High: CI < 0.5 to IC50) | (2) (High: CI < 0.5 to IC50)
N.N.O=C([O-])C1(C(=O)[O-])CCC1.[Pt+2] [Carboplatin, carboplatin] | (2) (High: CI < 0.5 to IC50) | (3) (Moderate: 0.5 < CI < 0.8 to IC50) | (1) (Very High: potentiating or additive activity to IC20 and CI < 0.6 to IC50) | (3) (Moderate: 0.5 < CI < 0.8 to IC50) | (3) (Moderate: 0.5 < CI < 0.8 at IC50) | (1) (Very High: CI equal or below 1 at IC20 and Cl below 0.6 to IC50) | (1) (Very High: CI equal or below 1 at IC20 and Cl below 0.6 to IC50) | (3) (Moderate: 0.5 < CI < 0.8 at IC50) | (3) (Moderate: 0.5 < CI < 0.8 to IC50) | (6) (Antagonist effect: CI > 1)
O=NN(CCCl)C(=O)NCCCl [Carmustine, carmustine] | (1) (Very High: potentiating or additive activity to IC20 and CI < 0.6 to IC50) | (1) (Very High: potentiating or additive activity to IC20 and CI < 0.6 to IC50) | (1) (Very High: potentiating or additive activity to IC20 and CI < 0.6 to IC50) | (1) (Very High: potentiating or additive activity to IC20 and CI < 0.6 to IC50) | (3) (Moderate: 0.5 < CI < 0.8 at IC50) | (1) (Very High: CI equal or below 1 at IC20 and Cl below 0.6 to IC50) | (1) (Very High: CI equal or below 1 at IC20 and Cl below 0.6 to IC50) | (2) (High: CI below 0.5 at IC50) | (1) (Very High: potentiating or additive activity to IC20 and CI < 0.6 to IC50) | (1) (Very High: potentiating or additive activity to IC20 and CI < 0.6 to IC50)
O=C(O)CCCc1ccc(N(CCCl)CCCl)cc1 [Chlorambucil, chlorambucil] | (6) (Antagonist effect: CI > 1) | (1) (Very High: potentiating or additive activity to IC20 and CI < 0.6 to IC50) | (1) (Very High: potentiating or additive activity to IC20 and CI < 0.6 to IC50) | (2) (High: CI < 0.5 to IC50) | (1) (Very High: CI equal or below 1 at IC20 and Cl below 0.6 to IC50) | (3) (Moderate: 0.5 < CI < 0.8 at IC50) | (1) (Very High: CI equal or below 1 at IC20 and Cl below 0.6 to IC50) | (3) (Moderate: 0.5 < CI < 0.8 at IC50) | (3) (Moderate: 0.5 < CI < 0.8 to IC50) | –
